Read-outs that look alike come from different tables or passages of the source.
Tests used:
erythrocytes = experiment: Hemolysis test; assay type: cell-based, monkey (macaque); settings: 100 μg per ml of suspension (positive control); macaque erythrocytes, one hour at 37° C.
Description: A compound acting on the membranes of bacteria can potentially disturb the membranes of mammalian cells. The red blood cells or erythrocytes serves as a model of eukaryotic cells where the degree of membrane permeation is easily evaluated by measuring the quantity of hemoglobin released through the pores of the embrittled membranes and the concentration of which is directly proportional to the optical density at 450 nm.
The erythrocytes are prepared from freshly sampled monkey blood (macaque). The heparinized blood is centrifuged and washed three times with cold PBS and resuspended at 10% (v/v) in PBS. 10 μl of an aqueous solution of the products to be tested are added to 90 μl of suspension of red blood cells. The erythrocytes are incubated for one hour at 37° C. The suspension is centrifuged in order to recover the supernatant which is more or less red depending on the degree of hemolysis. The concentration of hemoglobin released in the supernatant is measured by the optical density at 450 nm. In the negative control the red blood cells are incubated in the absence of product and show an OD of 0.100% hemolysis is obtained with 100 μg cetylpyridinium chloride per ml of suspension. The degree of hemolysis is evaluated with respect to the positive control for the different concentrations of the products tested.

Neurospora crassa = assay type: cell-based
Description: (§1) The compounds tested all form part of the polyurea class and were obtained in the laboratory by chemical route. Tests for the inhibition of the growth of bacteria and fungi were carried out in liquid tests. The specific activity of each molecule is expressed by the minimal inhibitory concentration on the growth of the bacteria and/or fungi, called MIC. The MIC is a value specific to each compound and varies as a function of the organisms tested. It should be noted that the MIC values follow a logarithmic progression, which is due to a two-by-two dilution of the compounds tested in a series of tests. The molecules tested were presented in the form of salts which are soluble in water and thus the culture medium of the microorganisms. The antifungal tests are carried out in similar fashion with ½ PDB (Potato dextrose broth, Difco) as culture medium and 10,000 spores per ml of culture. An optical control under a reverse microscope is necessary in the case of the fungi in order to evaluate the formation of the mycelia of the filamentous fungi (Aspergillus fumigatus, Neurospora crassa). The CMC is determined after culture for 48 hours at 29° C. and corresponds to the concentration where no formation of mycelium is observed.

Aspergillus fumigatus = assay type: cell-based
Description: as §1

Pseudomonas aeruginosa = assay type: cell-based
Description: (§2) The compounds tested all form part of the polyurea class and were obtained in the laboratory by chemical route. Tests for the inhibition of the growth of bacteria and fungi were carried out in liquid tests. The specific activity of each molecule is expressed by the minimal inhibitory concentration on the growth of the bacteria and/or fungi, called MIC. The MIC is a value specific to each compound and varies as a function of the organisms tested. It should be noted that the MIC values follow a logarithmic progression, which is due to a two-by-two dilution of the compounds tested in a series of tests. The molecules tested were presented in the form of salts which are soluble in water and thus the culture medium of the microorganisms.
(§3) For carrying out the tests, 96-well plates were used. Each well contains 90 μl of a suspension of bacteria diluted in PB medium (Poor Broth, Difco) in order to have a final concentration of 1 mOD. 10 μl of compound in solution in sterile water at concentrations ranging from 1 mg/ml to 2 μg/ml are added to the tests. The plates are placed under stirring at 29° C. for 24 hours. The growth of the bacteria is measured by measuring the turbidity of the culture medium and measuring the OD at 595 nm. The value of the MIC corresponds to the concentration of the substances to be tested where no growth of bacteria is noted (OD=0).

E. coli D363 = assay type: cell-based
Description: as §2, §3

Staphylococcus aureus = assay type: cell-based; settings: 24 h
Description: as §2, §3

Salmonella cloacae = assay type: cell-based
Description: as §2, §3

Micrococcus luteus = assay type: cell-based
Description: as §2, §3

| Compound | hemolysis (erythrocytes) | Minimum inhibitory concentration (Neurospora crassa; 48 h) | Minimum inhibitory concentration (Neurospora crassa; Neurospora crassa, ½ PDB, 10,000 spores per ml, 48 hours at 29° C.) | Minimum inhibitory concentration (Aspergillus fumigatus; 48 h) | Minimum inhibitory concentration (Aspergillus fumigatus; Aspergillus fumigatus, ½ PDB, 10,000 spores per ml, 48 hours at 29° C.) | Minimum inhibitory concentration (Pseudomonas aeruginosa; 24 h) | Minimum inhibitory concentration (Pseudomonas aeruginosa; Pseudomonas aeruginosa, PB medium, 24 hours at 29° C.) | Minimum inhibitory concentration (E. coli D363; D363, 24 h) | Minimum inhibitory concentration (E. coli D363; E. coli D363, PB medium, 24 hours at 29° C.) | Minimum inhibitory concentration (Staphylococcus aureus) | Minimum inhibitory concentration (Salmonella cloacae; 24 h) | Minimum inhibitory concentration (Salmonella cloacae; Salmonella cloacae, PB medium, 24 hours at 29° C.) | Minimum inhibitory concentration (Micrococcus luteus; 24 h) | Minimum inhibitory concentration (Micrococcus luteus; Micrococcus luteus, PB medium, 24 hours at 29° C.) |
| --- | --- | --- | --- | --- | --- | --- | --- | --- | --- | --- | --- | --- | --- | --- |
| CCCCCCCCCCCCCCCC[n+]1ccccc1 [cetylpyridinium chloride] | 100% |  |  |  |  |  |  |  |  |  |  |  |  |  |
| H-YLVFKAVY-NH2 [Peptide L (control), H-Tyr-Leu-Val-Phe-Lys-Ala-Val-Tyr-NH2] |  | 20 µM | 30 µg/mL | 82 µM | 121 µg/mL | 82 µM | 121 µg/mL | 2.6 µM | 3.8 µg/mL | >121 µg/mL | 2.6 µM | 3.8 µg/mL | 2.6 µM | 3.8 µg/mL |

Reference: patent US8071640B2, “Urea oligomers, their preparation process and pharmaceutical compositions containing them” (Centre National de la Recherche Scientifique, priority 2001, dated 2011)
